PubChem BioAssay AID1996
Converted amounts (≈) assume the structure as drawn.

conditions: buffer; pH 7.4; 200.0 µM

| solubility kinetic [µg/mL] | Compound |
| --- | --- |
| > 41.2 | Cc1ccc(C)n1CCN1CCN(C(=O)CC#N)CC1 |
| 38.4 (≈ 145 µM) | CCN1C(=O)C(C(=O)c2ccccc2)SC1=S (stereo unspecified) |
| > 43.4 | Cc1ccc(C)c(NC(=O)CSc2c(C)n[nH]c2C)c1 |
| 2.4 (≈ 6.73 µM) | CCN(C(=O)COC(=O)c1ccccc1O)c1nc2ccccc2s1 |
| 0.4 (≈ 1.21 µM) | CCCc1c(C)nc(N2CCN(c3ccccc3F)CC2)[nH]c1=O |
| 1.4 (≈ 3.84 µM) | N/C(=N\OC(=O)c1cccc(Br)c1)c1ccc([N+](=O)[O-])cc1 |
| < 0.6 | O=C(Nc1ccc2ccccc2c1)c1ccccc1F |
| 1.3 (≈ 3.47 µM) | COc1ccccc1NC(=O)c1ccccc1C(=O)N(C)Cc1ccccc1 |
| > 45.2 | Cc1ccc(C)c(C(C)NC(=O)C2CC=CCC2C(=O)O)c1 (stereo unspecified) |
| 34.8 (≈ 120 µM) | O=[N+]([O-])c1ccc(C(O)C23CN4CN(CN(C4)C2)C3)cc1 (stereo unspecified) |
| 6.9 (≈ 28.6 µM) | O=C(Nc1ccccc1)C(=O)Nc1cccnc1 |
| 9.9 (≈ 46.9 µM) | Oc1ccc(N2Cc3ccccc3C2)cc1 |
| < 0.7 | O=C(COC(=O)c1ccccc1Nc1ccccc1F)c1ccccc1 |
| 5.5 (≈ 24 µM) | O=C(/C=C/Nc1ccccc1O)c1ccco1 |
| 34.1 (≈ 134 µM) | OC(CNCc1ccccc1Cl)C(F)(F)F (stereo unspecified) |
| > 52.7 | O=C(c1ccccc1)N1CCN(S(=O)(=O)N2CCCCCC2)CC1 |
| 36.7 (≈ 148 µM) | CN(C)C(=O)c1ccc(OCC(F)(F)F)nc1 |
| 45.8 (≈ 149 µM) | Nc1nc(Nc2ccccc2F)nc(NCCO)c1[N+](=O)[O-] |
| > 43 | O=C(C1CC(=O)N(c2ccccc2)C1)N1CCCCCC1 (stereo unspecified) |
| 6.6 (≈ 21.1 µM) | Cc1ccnc(NC(=O)c2ccc3c(c2)NC(=O)C(C)S3)c1 (stereo unspecified) |
| 5.6 (≈ 17.2 µM) | CC(=O)c1ccc(NC(=S)Nc2ccc3[nH]c(=O)[nH]c3c2)cc1 |
| 14.9 (≈ 90.2 µM) | Cn1c(=S)oc2ccccc21 |

| solubility kinetic [µg/mL] | Compound |
| --- | --- |
| > 40.4 | COc1ccc(C2(O)C(=O)Nc3ccc(C)cc32)cc1 (stereo unspecified) |
| > 46.3 | Cc1ccc(N(CN2CCCC2=O)C(=O)c2ccccc2)cc1 |
| > 53 | O=C(O)COCC(=O)Nc1ccc2c(c1)ncn2CCc1ccccc1 |
| 1.4 (≈ 5.56 µM) | Cc1cc(NC(=O)Nc2ccc(Cl)cc2)no1 |
| > 40.1 | CC(O)CCC(=O)NNC(=S)Nc1ccccc1 (stereo unspecified) |
| 41.3 (≈ 141 µM) | c1ccc(N2CCN(Cc3nc4ccccc4[nH]3)CC2)nc1 |
| 1 (≈ 3.04 µM) | Oc1ccc(Br)cc1CNc1cnc2ccccc2c1 |
| 30.5 (≈ 122 µM) | Cc1ccc(C(=O)Cc2nc3ccccc3[nH]2)cc1 |
| 14.1 (≈ 51.2 µM) | Cc1cccc(OCCCC(=O)NC2CCCCC2)c1 |
| > 57.8 | O=C(COC(=O)CCC(=O)c1cccs1)Nc1ccccc1C(F)(F)F |
| < 0.6 | CCOc1ccc(Cn2c(=O)oc3ccccc32)cc1 |
| > 33.9 | CC(C)(C(=O)c1cccnc1)c1cccnc1 |
| 24.5 | Cc1cc2ccc3ccccc3c2cc1CN(C)C.Cl |
| 2.3 (≈ 7.63 µM) | CCOc1ccc(N/C(N)=N/c2nc(C)c(C)c(=O)[nH]2)cc1 |
| < 0.8 | CCOC(=O)c1c(C)oc2c1c(C=NCC1CCCO1)c(O)c1ccccc12 (stereo unspecified) |
| > 47.5 | Cc1[nH]c2ccccc2c1C(O)CN1CCC2(CC1)OCCO2 (stereo unspecified) |
| 37.3 (≈ 128 µM) | COC(=O)C1=C(C)NC(=O)NC1c1ccc2c(c1)OCO2 (stereo unspecified) |
| > 40.8 | Cc1ccc(-c2ocnc2C(=O)N2CCOCC2)cc1 |
| 47 (≈ 143 µM) | COC(=O)[C@H](Cc1ccccc1)NC(=O)Nc1ccc(OC)cc1 |
| > 81 | CCCCn1c(N)c(N(CCOC)C(=O)c2ccc3c(c2)C(=O)N(c2ccccc2Cl)C3=O)c(=O)[nH]c1=O |
| > 45.3 | Cc1ccc(OCC(O)CN2CCOCC2)c(C)c1.Cl (stereo unspecified) |
| 36.6 (≈ 98.8 µM) | CC(C)CN(C(=O)C1CCC1)c1c(N)n(Cc2ccccc2)c(=O)[nH]c1=O |

| solubility kinetic [µg/mL] | Compound |
| --- | --- |
| < 0.4 | CCOC(=O)Cn1c(=NC(=O)C(C)C)sc2c(C)cc(C)cc21 |
| 3.3 (≈ 9.9 µM) | CC1CCCC(NC(=O)COC(=O)/C=C/c2ccc(F)cc2)C1C (stereo unspecified) |
| 49.9 | CN(CCO)CC(O)CN(c1ccccc1)c1ccccc1.Cl (stereo unspecified) |
| 8.6 (≈ 26.7 µM) | O=C(CCCSc1ccc(Cl)cc1)Nc1ccccc1O |
| < 0.7 | CC1(c2ccc(NC(=O)c3ccccc3F)cc2)CC1(Cl)Cl (stereo unspecified) |
| > 50.8 | COCCCNC(=O)Cc1ccc(-n2c(C)nc3cccnc32)cc1 |
| > 31.7 | C[C@](N)(Cc1ccc(O)c(O)c1)C(=O)O |
| > 47.7 | COc1cc(-n2c(C)nc3cccnc32)c(Cl)cc1C(=O)O |
| > 47.5 | CS(=O)(=O)N(CC(=O)N1CCCC1)c1ccc(Cl)cc1 |
| > 47.8 | CCN(CC(=O)Nc1ccccc1OC)C(=O)CC1CCCC1 |
| > 34.5 | CCOC(=O)/C(C#N)=C/C=C1/C=CC=CN1C |
| > 40.1 | O=C(Nc1cccnc1)c1cc(Cl)ccc1Cl |
| 19.2 (≈ 68 µM) | CN(C/C=C/c1ccccc1[N+](=O)[O-])Cc1ccccc1 |
| > 44.2 | CN1CCN(CC(=O)Nc2nc3c(s2)CCCC3)CC1 |
| 3.1 (≈ 9.35 µM) | CCOc1ccccc1NC(=O)COC(=O)/C=C/c1cccs1 |
| 46.8 (≈ 131 µM) | O=C(CC1NCCN(Cc2ccccc2)C1=O)Nc1ccc(Cl)cc1 (stereo unspecified) |
| 3.8 (≈ 12.7 µM) | COC(=O)c1cccc(NC(=O)c2cccc([N+](=O)[O-])c2)c1 |
| 11.6 (≈ 30.4 µM) | Cc1cccc(NC(=O)c2ccc(S(=O)(=O)N(C)c3ccccc3)cc2)n1 |
| > 46.1 | Cc1ccc(C)c(NC(=S)NCCCN2CCOCC2)c1 |
| < 0.3 | O=[N+]([O-])c1cccc(S(=O)(=O)N2CCc3ccccc3C2)c1 |
| 17.5 (≈ 59.9 µM) | COC1=C/C(=C/c2c(O)c(C#N)c3ccccn23)C=CC1=O |
| > 38.3 | Cc1ccc(S(=O)(=O)NCC2CCCO2)cc1 (stereo unspecified) |

| solubility kinetic [µg/mL] | Compound |
| --- | --- |
| 28.2 (≈ 85.8 µM) | Cc1cccc(-n2c(C)cc(C(=S)N3CCOCC3)c2C)c1C |
| > 45.1 | Cc1cc(C(=O)N2CCN(c3ccccc3O)CC2)c(C)o1 |
| 42.9 (≈ 134 µM) | Cc1c(NS(C)(=O)=O)cccc1-c1nc2cccnc2s1 |
| 11.4 (≈ 31.8 µM) | CC(Oc1ccccc1)C(=O)N1CCN=C1SCc1ccccc1F (stereo unspecified) |
| > 43.4 | Cc1ccc(S(=O)(=O)NC(=O)c2cccc(C)c2)cc1 |
| 20.2 (≈ 75 µM) | Cc1ccc(NC(=O)CCOc2ccccc2)c(C)c1 |
| > 48.2 | COC(=O)c1cn(Cc2cc(OC)ccc2OC)cc(F)c1=O |
| 6.2 (≈ 21.1 µM) | O=C(Cn1c(=O)oc2ccc(Cl)cc21)Nc1ccon1 |
| 1.2 (≈ 3.72 µM) | Cc1c(Cl)cccc1NC(=S)NCCc1ccc(F)cc1 |
| 23.8 (≈ 67 µM) | CC(C)n1c(CN(C)Cc2ccccc2)nc2c1c(=O)n(C)c(=O)n2C |
| 17.6 (≈ 51.7 µM) | CCN(CC)C(=O)CSc1ncccc1-c1nc2ccccc2[nH]1 |
| 7 (≈ 25.9 µM) | C=CCNC(=O)/C(C#N)=C/c1ccc2c(c1)OCCO2 |
| 43.4 (≈ 129 µM) | COc1cccc(NC(=O)COC(=O)c2ccc3ccccc3n2)c1 |
| 0.7 (≈ 2.21 µM) | c1ccc(-c2nc(NCc3cccs3)c3ccccc3n2)cc1 |
| < 0.8 | Brc1ccc(OCCCOc2cccc3cccnc23)cc1 |
| 13.1 (≈ 41.8 µM) | Cc1ccc(C(=O)OCC(=O)NC2CCCc3ccccc32)o1 (stereo unspecified) |
| > 44.1 | O=c1[nH]c(/C=C\c2cccc(Cl)c2)nc(O)c1[N+](=O)[O-] |
| 36.1 (≈ 128 µM) | Cc1cc(C)c(S(=O)(=O)Nc2nccs2)c(C)c1 |
| 6 (≈ 12.6 µM) | COc1ccc(S(=O)(=O)N2CCOCC2)cc1NC(=O)COc1ccc2ccc(=O)oc2c1 |

| Compound | solubility kinetic [µg/mL] |
| --- | --- |
| COc1cc2c(cc1/C=C/[N+](=O)[O-])OCO2 | 6.5 (≈ 29.1 µM) |
